Source: patent US12427143B2, “Pharmaceutical composition for treating or preventing aging or age-related diseases” (INU RESEARCH & BUSINESS FOUNDATION, priority 2021, dated 2025)
Where a chain is given by its changes, count along the chain named.

Tests used:
[1] = target: T1, Myc-14-3-3 zeta/delta (S58A) / ATP synthase alpha and beta (Homo sapiens, UniProt P63104, S58A); experiment: Co-immunoprecipitation of ATP synthase alpha and beta with Myc-14-3-3 zeta/delta(S58A); assay type: cell-based; conditions: HEK293T, performed in the same way (4 μM)
T1 construct: expressed in transfected cells; host or cells: HEK293T (CRL-11268; ATCC)
T1 sequence (P63104 1-245 S58A): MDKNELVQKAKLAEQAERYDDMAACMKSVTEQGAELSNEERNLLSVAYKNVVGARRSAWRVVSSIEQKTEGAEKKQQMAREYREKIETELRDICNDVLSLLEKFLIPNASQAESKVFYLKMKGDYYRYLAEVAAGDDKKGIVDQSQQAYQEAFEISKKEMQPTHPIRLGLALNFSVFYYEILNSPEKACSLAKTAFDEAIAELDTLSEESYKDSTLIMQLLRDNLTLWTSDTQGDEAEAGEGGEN
Protocol: (§1) pCMV-Myc-14-3-3 zeta/delta(WT) plasmid and pCMV-Myc-14-3-3 zeta/delta(S58A) plasmid were transfected with HEK293T(CRL-11268; ATCC). […] The treated cells were digested with 0.1% NP-40 cell lysis buffer to destroy cells, and IP (immunoprecipitation) of MIC60 subunit was performed using AccuNanoBeadm Streptavidin Magnetic Nanobeads (TA-1015-1; Bioneer, Daejeon, Korea). IP of 14-3-3 zeta/delta(WT) and 14-3-3 zeta/delta(S58A) were performed using anti-Myc tag antibody.
(§2) The PCR fragment of 14-3-3 zeta/delta (WT) and 14-3-3 zeta/delta (S58A) were separately cloned into pCMV-Myc-puromycin. HEK293T (CRL-11268; ATCC) were transfected with Lipofectaminem 2000 Transfection Reagent (11668-019; Thermo Scientific), Selection was carried out with puromycin 3 μg/ml.
(§3) Therefore, the 58th serine region of 14-3-3 zeta/delta was mutated to alanine to investigate its function. Myc-tag 14-3-3 zeta/delta(WT) vector and 14-3-3 zeta/delta(S58A) vector were transfected and overexpressed with HEK293T. Additionally, their interactions with endogenous ATP synthase alpha and beta were confirmed by IP (FIG. 4B).
(§4) As a result, ATP synthase alpha and beta proteins, which interacted with Myc-14-3-3 zeta/delta(WT) were increased KB1541 was treated to HEK293T at a concentration of 4 μM (FIG. 5B).

[2] = test system: senescent HDF mitochondria; experiment: Transmission electron microscopy of mitochondrial cristae; assay type: cell-based, human
Excerpt: FIG. 6 depicts the result of mitochondria recovery induced by KB1541. (A) HDF mitochondria observed in transmission electron microscope 21 days after treated with KB1541. From left: Senescent (DMSO), Senescent (KB1541); (B) the length of cristae observed in transmission electron microscope.
The inventors studied level to cristae of mitochondria 12 days after senescent HDF treatment and identified senescence recovery. […] In graph where the images were quantified and represented, the length of cristae increased when treated with KB1541(FIG. 6B).

senescent HDF [3] = experiment: Mitochondrial ROS by MitoSOX flow cytometry; assay type: cell-based, human; conditions: versus senescent HDF
Protocol: (§5) FIG. 5 depicts the result of recovery of mitochondria based on the increased production of ATP. (A and B) Flow cytometric analysis of mitochondrial ROS and mitochondrial mass analysis using Mito tracker Green and MitoSOX; (C and D) measurement of non-glycotic glycolysis level and glycotic glycolysis level; (E) flow cytometry analysis of autophagosome level using CYTO-ID Green assay.
(§6) For quantification of mitochondrial ROS, the cells were incubated in medium containing 5 μM MitoSOX (M36008; Life Technologies, Carlsbad, CA, USA) for 30 min at 37° C. For quantification of mitochondrial mass, the cells were incubated in medium containing 50 nM MitoTracker green (M22426; Life Technologies) for 30 min at 37° C. After staining, for the purpose of measuring mitochondrial membrane potential, cells were prepared for FACS analysis.
Reactive oxygen species (ROS) was identified and measured, which damages homeostasis and metabolism of normal mitochondria.

senescent HDF [4] = experiment: Autophagy level (Cyto-ID flow cytometry); assay type: cell-based, human; conditions: HDF treated with compound
Protocol: as §5
Cells were incubated in medium containing 20 μM chloroquine (CQ; C6628, Sigma-Aldrich). At 24 h after incubation, cells were further stained with Cyto-ID staining solution and 50 nM LTDR (ENZ-51031-0050; ENZO, Lausen, Switzeland) for 30 min and prepared for FACS analysis. To measure background autofluorescence, cells were incubated in medium without dye. Fluorescence from Cyto-ID was normalized with fluorescence from LTDR. Autophagic flux was calculated using the following equation: ΔMFI Cyto-ID=MFI Cyto-ID (+CQ)/MFI Cyto-ID (−CQ).
(§7) The capability of removing organelles having dysfunction in senescent cells is deteriorated. Recovery of autophagy prevents accumulation of dysfunctional mitochondria and resulting in signs of senescence recovery. Mitochondrial mass and autophagy were measured for identifying the function. Mitochondrial mass decreased in HDF treated with KB1541(FIG. 5B). Moreover, autophagy level increased in HDF treated with KB1541(FIG. 5C).

[5] = target: T2, Myc-14-3-3 zeta/delta(WT) / ATP synthase alpha and beta (Homo sapiens, UniProt P63104); experiment: Co-immunoprecipitation of ATP synthase alpha and beta with Myc-14-3-3 zeta/delta(WT); assay type: cell-based; conditions: HEK293T, 4 μM
T2 construct: expressed in transfected cells; host or cells: HEK293T (CRL-11268; ATCC)
T2 sequence (P63104 1-245): T1 sequence (P63104 1-245 S58A) with A58S
Protocol: as §1, §2, §3, §4

senescent HDF [6] = experiment: Measurement of cellular ATP levels (oxphos and glycolysis portion); assay type: cell-based, human; conditions: versus senescent HDF
Protocol: Cells were incubated in medium with or without 20 μM oligomycin for 24 h and then lysed with lysis buffer. ATP content was measured using a ViaLight Plus Kit (LT07-221; Lonza, Basel, Switzerland) according to the manufacturer's instructions. DNA content was measured using AccuBlue broad range dsDNA quantitation kit (31007; Biotium, Fremont, CA, USA). For measurements of relative ATP content, the luminescence of each sample was normalized to the DNA content.
The inventors studied the changes in ATP production when assembling the ATP subunit based on the result of FIG. 4B. Oxphos portion was measured for identifying ATP resulting from oxidative phosphorylation in mitochondria cristae (FIG. 4C).
Moreover, glycolysis portion was measured for assessing the amount of ATP during glycolysis (FIG. 4D).

senescent HDF [7] = experiment: Mitochondrial mass by MitoTracker green flow cytometry; assay type: cell-based, human; conditions: HDF treated with compound
Protocol: as §5, §6, §7

senescent HDF [8] = experiment: Seahorse analysis, ECAR (dependency of glycolysis); assay type: cell-based, human; conditions: HDF treated with compound, regardless of glucose
Excerpt: as §5
The XFe24 flux analyzer (Seahorse Bioscience XFe24 Instrument) was used according to the manufacturer's protocol. Briefly, 5×10^4 cells were distributed into each well of an XFe24 cell-culture plate from the XF24 FluxPak (100850-001; Seahorse Bioscience, North Billerica, MA, USA) and then cultured in a 5% CO2 incubator at a temperature of 37° C. for 16 h. Next, the medium was replaced by XF Assay medium (102365-100; Seahorse Bioscience), which lacked glucose, and the cells were then cultured for another 1 h in the same incubator. The extracellular acidification rate (ECAR) was measured using an XF Glycolysis Stress Test kit (102194-100; Seahorse Bioscience). ECAR was reported in mpH/min. As a metabolic shifter, aconitase inhibitor deferiprone (379409-5G; Sigma-Aldrich) was used.
Lastly, dependency of glycolysis was measured via ECAR.
Dependency of glycolysis in HDF treated with KB1541 decreased regardless of glucose like ATP study (FIGS. 5D and E).

senescent HDF cells = experiment: Compound screening: cell proliferation of senescent fibroblasts (GelGreen fluorescence); assay type: cell-based, human; conditions: 27 drugs at 4 μM, 12 days, senescent HDF 1,000 cells per well
Protocol: FIG. 1 depicts the results of potential target screening for recovering senescence. Each of compounds was treated to a 96 well plate seeded with 1000 senescent cells (4 μM). After incubation for 12 days, the cells were stained with Gel green solution (1:1,000 in D.W.). Cell number was determined via fluorescence measurement using fluorescence microplate reader (excitation/emission 485 nm/535 nm).
Senescent fibroblasts were grown in 96-well plates at a density of 1,000 cells per well. Components from the library were diluted to a final concentration of 4 μM and added to the wells every 4 days. 12 days after drug treatment, cells were washed twice with phosphate-buffered saline (PBS) and lysed in 50 μl of 0.2% SDS. The plates were incubated at 37° C. for 1 h. GelGreen® Nucleic Acid Gel Stain (150 μl) (1:1,000 in DW; 41005; Biotium, Fremont, CA, USA) was added to the wells. Cell number was determined by measuring fluorescence intensity with VICTOR Multilabel Plate Reader (2030-0050; PerkinElmer, Waltham, MA, USA). The mean and standard deviation from six replicates were determined for each of experimental groups.
Cellular senescence is characterized by cell cycle arrest, and the inventors identified a compound recovering cell cycle arrest with additional anti-senescence effects. […] Relative cell proliferation was measured in terms of the senescent HDF. […]

FC(F)(F)c1ccc(-c2nc3c(N4CCCC4)nc4ccccc4c3o2)cc1 [KB1541]
ATP synthase alpha and beta proteins interacting with Myc-14-3-3 zeta/delta (S58A) [1]: did not change significantly
Folds (cristae) of mitochondria in electron microscope images ([2]; 12 days after treatment): restored as well as increased
Length of cristae ([2]; quantified TEM images): increased
Reactive oxygen species (mitochondrial ROS) (senescent HDF [3]): decreased in half
Autophagy level (senescent HDF [4]): increased
ATP synthase alpha and beta proteins interacting with Myc-14-3-3 zeta/delta(WT) [5]: increased
Glycolysis portion of ATP production (senescent HDF [6]): reduced compared to senescent HDF
Oxphos portion of ATP production (senescent HDF [6]): higher than senescent HDF
Mitochondrial mass (senescent HDF [7]): decreased
Dependency of glycolysis (ECAR) (senescent HDF [8]): decreased
Relative cell proliferation, rank among screened compounds (senescent HDF cells): most effective compound on cell proliferation
